Results: US20260083865A1, “PROSTATE SPECIFIC MEMBRANE ANTIGEN (PSMA) LIGANDS AND USE THEREOF” (priority 2022, published 2026)
Read-outs that look alike come from different tables or passages of the source. Numbered stars: 1 amine (or outer) side, 2 acyl side, 3 side chain; on linkers, the order of the positions; unused ones are H or OH. Bridge positions count the residues as written; N and C are the ends. Square brackets hold non-standard residues; d marks the D form. Peptide text beside a SMILES is read from it. * marks the point of attachment. DOTA = O=C(O)CN1CCN(CC(=O)O)CCN(CC(=O)*)CCN(CC(=O)O)CC1; Phe(4-CH2COOH) = N[C@@H](Cc1ccc(CC(=O)O)cc1)C(=O)O; Phe(3-CN) = N#Cc1cccc(C[C@H](N)C(=O)O)c1; Phe(4-Cl) = N[C@@H](Cc1ccc(Cl)cc1)C(=O)O; Phe(2-Cl) = N[C@@H](Cc1ccccc1Cl)C(=O)O; Phe(3-F) = N[C@@H](Cc1cccc(F)c1)C(=O)O; Arg(Me) = CNC(=N)NCCC[C@H](N)C(=O)O; tBuAla = CC(C)(C)C[C@H](N)C(=O)O; X1 = O=C(CC1CCN([*:1])CC1)[*:2]; Lys(Me) = CNCCCC[C@H](N)C(=O)O; Thr(ol) = C[C@@H](O)[C@H](N)CO; Tle = CC(C)(C)[C@H](N)C(=O)O; Nle = CCCC[C@H](N)C(=O)O; Aib = CC(C)(N)C(=O)O

What was measured:
[1] = target: T1, Fc-fusion protein of human PSMA (hPSMA-Fc) (Homo sapiens, UniProt Q04609); experiment: Surface plasmon resonance assay (Biacore T200, single cycle kinetic); assay type: binding; settings: read-out: pKD CAT (converted)
T1 construct: purchased Acro Biosystems PSA-H5264
T1 sequence (Q04609 44-750 limits assumed): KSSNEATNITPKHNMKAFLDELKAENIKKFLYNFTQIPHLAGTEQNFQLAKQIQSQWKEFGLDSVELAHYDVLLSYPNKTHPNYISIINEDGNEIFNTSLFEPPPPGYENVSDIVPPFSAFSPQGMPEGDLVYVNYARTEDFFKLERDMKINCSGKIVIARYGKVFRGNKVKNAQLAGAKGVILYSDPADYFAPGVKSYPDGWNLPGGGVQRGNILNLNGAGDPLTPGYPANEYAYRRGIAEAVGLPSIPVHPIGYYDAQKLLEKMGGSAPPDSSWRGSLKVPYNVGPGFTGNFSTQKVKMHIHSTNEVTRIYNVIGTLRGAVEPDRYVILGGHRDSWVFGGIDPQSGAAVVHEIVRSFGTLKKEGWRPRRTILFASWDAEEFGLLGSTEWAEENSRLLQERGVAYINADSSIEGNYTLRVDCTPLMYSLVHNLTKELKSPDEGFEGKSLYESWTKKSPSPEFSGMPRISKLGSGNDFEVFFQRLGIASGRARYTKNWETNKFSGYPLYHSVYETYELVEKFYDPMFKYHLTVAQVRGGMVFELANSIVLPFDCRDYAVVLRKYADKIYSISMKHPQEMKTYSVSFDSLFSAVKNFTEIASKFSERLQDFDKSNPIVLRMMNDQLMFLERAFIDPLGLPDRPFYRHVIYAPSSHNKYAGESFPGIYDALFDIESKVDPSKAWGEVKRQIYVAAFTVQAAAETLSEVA
Summary of the method: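 KD, expressed as pKD, came from 1:1 Langmuir fits of reference- and buffer-blank-subtracted SPR data. The runs were single-cycle kinetics at 25° C in HBST/0.1% DMSO over human PSMA-Fc, captured to ~1000 RU on a peptide-coated CM5 surface and regenerated with 10 mM glycine pH 1.5.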

[2] = target: T2, PSMA-expressing C4-2 cells (Homo sapiens, UniProt Q04609); experiment: FACS binding assay (competition with 50 nM PSM-0183); settings: C4-2 cells, read-out: pIC50 [C4-2] CAT (converted)
T2 construct: PSMA-expressing C4-2 cells (ATCC, Cat. No. CRL-3314) were cultured in RPMI-1640; host or cells: C4-2 cells
T2 sequence (Q04609 whole entry): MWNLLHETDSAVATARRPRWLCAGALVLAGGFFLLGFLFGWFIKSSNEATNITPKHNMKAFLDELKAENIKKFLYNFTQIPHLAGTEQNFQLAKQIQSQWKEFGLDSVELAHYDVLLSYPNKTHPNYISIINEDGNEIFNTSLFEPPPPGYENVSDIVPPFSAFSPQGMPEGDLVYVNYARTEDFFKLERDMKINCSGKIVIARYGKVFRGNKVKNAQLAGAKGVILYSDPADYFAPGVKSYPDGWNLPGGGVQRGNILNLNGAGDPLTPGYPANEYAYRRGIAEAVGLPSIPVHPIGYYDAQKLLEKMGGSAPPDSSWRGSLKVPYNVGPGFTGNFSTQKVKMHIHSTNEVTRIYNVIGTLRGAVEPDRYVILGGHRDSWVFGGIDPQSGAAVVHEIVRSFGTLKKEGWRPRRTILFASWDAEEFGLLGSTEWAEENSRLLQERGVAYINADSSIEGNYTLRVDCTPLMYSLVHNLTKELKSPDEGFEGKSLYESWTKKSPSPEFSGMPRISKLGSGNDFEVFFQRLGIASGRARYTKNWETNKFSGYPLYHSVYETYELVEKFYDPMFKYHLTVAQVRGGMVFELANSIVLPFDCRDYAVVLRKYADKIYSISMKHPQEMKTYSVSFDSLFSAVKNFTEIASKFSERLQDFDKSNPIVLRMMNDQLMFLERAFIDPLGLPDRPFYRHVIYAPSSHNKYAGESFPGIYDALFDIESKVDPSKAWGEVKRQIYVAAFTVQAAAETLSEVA
Summary of the method: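 Competition format: fluorescent tracer PSM-0183 (50 nM) displaced from PSMA on C4-2 cells by a test compound titration over 1 h at 4 °C. Bound tracer was quantified as flow-cytometric AF488 median fluorescence after washing. Four-parameter logistic fits of MFI data gave IC50 and pIC50.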

[3] = pKD category for PSMA SPR activity assay, hPSMA-Fc, 25° C.

`CC(=O)N[C@H](C(=O)NC(C)(C)C(=O)N[C@@H](Cc1ccccc1)C(=O)N[C@H]1CSSC[C@@H](C(=O)N[C@H](C(=O)N[C@H](C(N)=O)[C@@H](C)O)C(C)(C)C)NC(=O)[C@H](CC(N)=O)NC(=O)[C@H](C)NC(=O)[C@H](CCCNC(=N)N)NC(=O)[C@H](CCCCN)NC1=O)[C@@H](C)O` [PSM-0552, Ac-Thr-Aib-Phe-[Cys-Lys-Arg-Ala-Asn-Cys]-Tle-Thr-NH2] (Ac-T[Aib]FCKRANC[Tle]T-NH2; disulfide 4-9) was tested, and the Kd [1, 3] was < 12.6 nM and the IC50 ([2]; pIC50 category of FACS binding) was < 200 nM.

With `CNCCCC[C@@H]1NC(=O)[C@@H](NC(=O)[C@H](Cc2cccc(F)c2)NC(=O)C(C)(C)NC(=O)[C@@H](NC(=O)CC2CCN(C(=O)CN3CCN(CC(=O)O)CCN(CC(=O)O)CCN(CC(=O)O)CC3)CC2)[C@@H](C)O)CSSC[C@@H](C(=O)N[C@H](C(N)=O)C(C)(C)C)NC(=O)[C@H](CC(N)=O)NC(=O)C(C)(C)NC(=O)[C@H](CCCNC(=N)NC)NC1=O` [PSM-0553, DOTA-Cmp-Thr-Aib-Mff-[Cys-Lys(Me)-Arg(Me)-Aib-Asn-Cys]-Tle-NH2] ({DOTA}-[X1]T[Aib][Phe(3-F)]C[Lys(Me)][Arg(Me)][Aib]NC[Tle]-NH2; disulfide 5-10) the Kd [1, 3] was 12.6 to 126 nM and the IC50 ([2]; pIC50 category of FACS binding) was < 200 nM.

With `CC(=O)N[C@H](C(=O)NC(C)(C)C(=O)N[C@@H](Cc1ccc(Cl)cc1)C(=O)N[C@H]1CSSC[C@@H](C(=O)N[C@H](C(=O)N[C@H](CO)[C@@H](C)O)C(C)(C)C)NC(=O)[C@H](CC(N)=O)NC(=O)C(C)(C)NC(=O)[C@H](CCCNC(=N)N)NC(=O)[C@H](CCCCN)NC1=O)[C@@H](C)O` [PSM-0554, Ac-Thr-Aib-Pcf-[Cys-Lys-Arg-Aib-Asn-Cys]-Tle-Throl-OH] (Ac-T[Aib][Phe(4-Cl)]CKR[Aib]NC[Tle][Thr(ol)]; disulfide 4-9) the Kd [1, 3] was < 12.6 nM and the IC50 ([2]; pIC50 category of FACS binding) was < 200 nM.

With `CC(=O)N[C@H](C(=O)NC(C)(C)C(=O)N[C@@H](Cc1cccc(C#N)c1)C(=O)N[C@H]1CSSC[C@@H](C(=O)N[C@H](C(=O)N[C@H](C(N)=O)[C@@H](C)O)C(C)(C)C)NC(=O)[C@H](CC(N)=O)NC(=O)C(C)(C)NC(=O)[C@H](CCCNC(=N)N)NC(=O)[C@H](CCCCN)NC1=O)[C@@H](C)O` [PSM-0555, Ac-Thr-Aib-Mnf-[Cys-Lys-Arg-Aib-Asn-Cys]-Tle-Thr-NH2] (Ac-T[Aib][Phe(3-CN)]CKR[Aib]NC[Tle]T-NH2; disulfide 4-9) the Kd [1, 3] was < 12.6 nM and the IC50 ([2]; pIC50 category of FACS binding) was < 200 nM.

With `CC(=O)N[C@H](C(=O)NC(C)(C)C(=O)N[C@@H](Cc1ccccc1)C(=O)N[C@H]1CSSC[C@@H](C(=O)N[C@H](C(=O)N[C@@H](Cc2ccccc2)C(N)=O)C(C)(C)C)NC(=O)[C@H](CC(N)=O)NC(=O)C(C)(C)NC(=O)[C@H](CCCNC(=N)N)NC(=O)[C@H](CCCCN)NC1=O)[C@@H](C)O` [PSM-0556, Ac-Thr-Aib-Phe-[Cys-Lys-Arg-Aib-Asn-Cys]-Tle-Phe-NH2] (Ac-T[Aib]FCKR[Aib]NC[Tle]F-NH2; disulfide 4-9) the Kd [1, 3] was < 12.6 nM and the IC50 ([2]; pIC50 category of FACS binding) was < 200 nM.

`CC(=O)N[C@H](C(=O)NC(C)(C)C(=O)N[C@@H](Cc1ccccc1Cl)C(=O)N[C@H]1CSSC[C@@H](C(=O)N[C@H](C(=O)N[C@H](C(=O)N[C@@H](CC(=O)O)C(N)=O)[C@@H](C)O)C(C)(C)C)NC(=O)[C@H](CC(N)=O)NC(=O)C(C)(C)NC(=O)[C@H](CCCNC(=N)N)NC(=O)[C@H](CCCCN)NC1=O)[C@@H](C)O` [PSM-0558, Ac-Thr-Aib-Ocf-[Cys-Lys-Arg-Aib-Asn-Cys]-Tle-Thr-Asp-NH2] (Ac-T[Aib][Phe(2-Cl)]CKR[Aib]NC[Tle]TD-NH2; disulfide 4-9) was tested, and the Kd [1, 3] was 12.6 to 126 nM and the IC50 ([2]; pIC50 category of FACS binding) was < 200 nM.

In the case of `CC(=O)NC(C)(C)C(=O)N[C@@H](Cc1ccc(Cl)cc1)C(=O)N[C@H]1CSSC[C@@H](C(=O)N[C@H](C(=O)N[C@H](C(N)=O)[C@@H](C)O)C(C)(C)C)NC(=O)[C@H](CC(N)=O)NC(=O)C(C)(C)NC(=O)[C@H](CCCNC(=N)N)NC(=O)[C@H](CCCCN)NC1=O` [PSM-0559, Ac-Aib-Pcf-[Cys-Lys-Arg-Aib-Asn-Cys]-Tle-Thr-NH2] (Ac-[Aib][Phe(4-Cl)]CKR[Aib]NC[Tle]T-NH2; disulfide 3-8), the Kd ([1]; PSMA SPR assay, category) is reported as < 12.6 nM and the IC50 ([2]; FACS binding, category) is reported as < 200 nM.

For `CC(=O)N[C@H](C(=O)NC(C)(C)C(=O)N[C@@H](Cc1ccccc1)C(=O)N[C@H]1CSSC[C@@H](C(=O)N[C@@H](CC(C)(C)C)C(N)=O)NC(=O)[C@H](CC(N)=O)NC(=O)C(C)(C)NC(=O)[C@H](CCCNC(=N)N)NC(=O)[C@H](CCCCN)NC1=O)[C@@H](C)O` [PSM-0560, Ac-Thr-Aib-Phe-[Cys-Lys-Arg-Aib-Asn-Cys]-Npg-NH2] (Ac-T[Aib]FCKR[Aib]NC[tBuAla]-NH2; disulfide 4-9), the Kd ([1]; PSMA SPR assay, category) was 12.6 to 126 nM and the IC50 ([2]; FACS binding, category) was < 200 nM.

With `CCCC[C@H](NC(=O)[C@@H]1CSSC[C@H](NC(=O)[C@H](Cc2ccccc2)NC(=O)[C@H](C)NC(=O)[C@@H](NC(C)=O)[C@@H](C)O)C(=O)N[C@@H](CCCCN)C(=O)N[C@@H](CCCNC(=N)N)C(=O)N[C@@H](C)C(=O)N[C@@H](CC(N)=O)C(=O)N1)C(=O)N[C@H](C(=O)N[C@@H](C)C(N)=O)[C@@H](C)O` [PSM-0562, Ac-Thr-Als-Phe-[Cys-Lys-Arg-Ala-Asn-Cys]-Nle-Thr-Ala-NH2] (Ac-TAFCKRANC[Nle]TA-NH2; disulfide 4-9) the Kd ([1]; PSMA SPR assay, category) was 126 to 501 nM and the IC50 ([2]; FACS binding, category) was 200 to 1260 nM.

With `CC(=O)N[C@H](C(=O)NC(C)(C)C(=O)N[C@@H](Cc1ccccc1)C(=O)N[C@H]1CSSC[C@@H](C(=O)N[C@H](C(=O)N[C@H](C(N)=O)[C@@H](C)O)C(C)(C)C)NC(=O)[C@H](CCC(=O)O)NC(=O)C(C)(C)NC(=O)[C@H](CCCNC(=N)N)NC(=O)[C@H](CCCCN)NC1=O)[C@@H](C)O` [PSM-0563, Ac-Thr-Aib-Phe-[Cys-Lys-Arg-Aib-Glu-Cys]-Tle-Thr-NH2] (Ac-T[Aib]FCKR[Aib]EC[Tle]T-NH2; disulfide 4-9) the Kd ([1]; PSMA SPR assay, category) was 12.6 to 126 nM and the IC50 ([2]; FACS binding, category) was < 200 nM.

For `CCCC[C@H](NC(=O)[C@@H]1CSSC[C@H](NC(=O)[C@H](Cc2ccccc2)NC(=O)[C@H](C)NC(=O)[C@@H](NC(C)=O)[C@@H](C)O)C(=O)N[C@@H](CCCCN)C(=O)N2CCC[C@H]2C(=O)N[C@@H](C)C(=O)N[C@@H](CC(N)=O)C(=O)N1)C(=O)N[C@H](C(=O)N[C@@H](CC(=O)O)C(N)=O)[C@@H](C)O` [PSM-0564, Ac-Thr-Als-Phe-[Cys-Lys-Pro-Ala-Asn-Cys]-Nle-Thr-Asp-NH2] (Ac-TAFCKPANC[Nle]TD-NH2; disulfide 4-9), the Kd ([1]; PSMA SPR assay, category) was > 501 nM and the IC50 ([2]; FACS binding, category) was > 3160 nM.

`CC(=O)N[C@H](C(=O)NC(C)(C)C(=O)N[C@@H](Cc1ccccc1)C(=O)N[C@H]1CSSC[C@@H](C(=O)N[C@H](C(=O)N[C@H](C(=O)N[C@@H](CC(=O)O)C(N)=O)[C@@H](C)O)C(C)(C)C)NC(=O)[C@H](CC(N)=O)NC(=O)[C@H](C)NC(=O)[C@H](CCCNC(=N)N)NC(=O)[C@H](CCCCN)NC1=O)[C@@H](C)O` [PSM-0565, Ac-Thr-Aib-Phe-[Cys-Lys-Arg-Ala-Asn-Cys]-Tle-Thr-Asp-NH2] (Ac-T[Aib]FCKRANC[Tle]TD-NH2; disulfide 4-9) was tested, and the Kd ([1]; PSMA SPR assay, category) was < 12.6 nM and the IC50 ([2]; FACS binding, category) was < 200 nM.

In the case of `C[C@@H](O)[C@H](NC(=O)[C@@H](NC(=O)[C@@H]1CSSC[C@H](NC(=O)[C@H](Cc2ccc(CC(=O)O)cc2)NC(=O)C(C)(C)NC(=O)[C@@H](NC(=O)CC2CCN(C(=O)CN3CCN(CC(=O)O)CCN(CC(=O)O)CCN(CC(=O)O)CC3)CC2)[C@@H](C)O)C(=O)N[C@@H](CCCCN)C(=O)N[C@@H](CCCNC(=N)N)C(=O)NC(C)(C)C(=O)N[C@@H](CC(N)=O)C(=O)N1)C(C)(C)C)C(N)=O` [PSM-0566, DOTA-Cmp-Thr-Aib-Fac-[Cys-Lys-Arg-Aib-Asn-Cys]-Tle-Thr-NH2] ({DOTA}-[X1]T[Aib][Phe(4-CH2COOH)]CKR[Aib]NC[Tle]T-NH2; disulfide 5-10), the Kd ([1]; PSMA SPR assay, category) is reported as > 501 nM and the IC50 ([2]; FACS binding, category) is reported as > 3160 nM.
